Assay results from patent publication US8343475B2, “Small cationic antimicrobial peptides” (priority 2006, dated 2013).
Converted amounts (≈) assume the structure as drawn. Residues, ends and D or L forms follow the SMILES beside them.

What was measured:
[1] = test system: MCP-3 release by human PBMC; experiment: Chemokine induction in PBMC (capture ELISA); assay type: cell-based; conditions: background (6) subtracted
Procedure, shortened: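 Human PBMC from healthy donors (Ficoll-isolated), 7.5×10^5 cells at 0.75–1×10^6 cells/ml, treated with peptides at 20 or 100 μg/ml for 24 h at 37° C, 5% CO2. MCP-3 in cell-free supernatants measured by capture ELISA.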

[2] = test system: MCP-1 release by human PBMC; experiment: Chemokine induction in PBMC (capture ELISA); assay type: cell-based; conditions: background (204) subtracted
Procedure, shortened: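 Heparinized blood from healthy volunteers; Ficoll-isolated human PBMC (7.5×10^5) treated with peptides at 20 or 100 μg/ml for 24 hours at 37° C, 5% CO2. Cell-free supernatants assayed for MCP-1 by capture ELISA.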

[3] = test system: Pseudomonas aeruginosa PAO1 strain H103; assay type: cell-based; conditions: PAO1
Procedure, shortened: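 Modified broth microdilution MIC in Mueller Hinton medium, peptides diluted in 0.01% acetic acid/0.2% BSA, polypropylene plates. Inoculum 2-7×10^5 CFU/ml, overnight at 37 °C; MIC is the lowest concentration with no visible growth.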

[4] = test system: Staphylococcus aureus ATCC25923; assay type: cell-based; conditions: ATCC25923
Description: (§1) Minimal inhibitory concentration (MIC) determination. The MIC of the peptides were measured using a modified broth microdilution method in Mueller Hinton (MH) medium (Wu M, Hancock R E W. 1999. Interaction of the cyclic antimicrobial cationic peptide bactenecin with the outer and cytoplasmic membrane. J Biol Chem 274, 29-35). Briefly, the peptides were dissolved and stored in glass vials. The assay was performed in sterile 96-well polypropylene microtitre plates were used. Serial dilutions of the peptides to be assayed were performed in 0.01% acetic acid (Fisher) containing 0.2% bovine serum albumin (Boehringer Mannheim GmbH) at 10× the desired final concentration. Ten microlitres of the 10× peptides were added to each well of a 96-well polypropylene plate containing 90 μl of MH media per well. Bacteria were added to the plate from an overnight culture at 2-7×10^5 colony forming units/ml and incubated over night at 37° C. The MIC was taken as the concentration at which no growth was observed.
(§2) Strains. For the killing assay a mini-Tn5-lux mutant in Pseudomonas aeruginosa H103 was used. The strain is called H1001 and contains a fliC::luxCDABE transcriptional fusion resulting in constitutive expression of luciferase. The bacterial strains used for the antimicrobial activity assays included Escherichia coli UB1005 (F-, nalA37, metB1), a wild-type Salmonella enterica ssp. typhimurium (S. typhimurium), wild-type Pseudomonas aeruginosa PAO1 strain H103, Enterococcus faecalis ATCC29212, Staphylococcus aureus ATCC25923, and a clinical isolate of Staphylococcus epidermidis obtained from Dr. D. Speert (Department of Medicine, University of British Columbia). Antifungal activity was tested using a lab isolate of Candida albicans obtained from Dr. B. Dill (Department of Microbiology and Immunology, University of British Columbia).

Escherichia coli UB1005 = assay type: cell-based; conditions: UB1005
Description: as §1, §2

[5] = test system: wild-type Salmonella enterica ssp. typhimurium; assay type: cell-based
Description: as §1, §2

[6] = test system: Enterococcus faecalis ATCC29212; assay type: cell-based; conditions: ATCC29212
Description: as §1, §2

[7] = test system: lab isolate of Candida albicans; assay type: cell-based; conditions: lab isolate of
Description: as §1, §2

[8] = test system: clinical isolate of Staphylococcus epidermidis; assay type: cell-based; conditions: clinical isolate of
Description: as §1, §2

[9] = test system: CXCL1 (Gro-α) release by human PBMC; experiment: Chemokine induction in PBMC (capture ELISA); assay type: cell-based; conditions: background (196) subtracted
Procedure, shortened: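 Human PBMC from healthy donors' heparinised blood (Ficoll), 7.5×10^5 cells treated with 20 or 100 μg/ml peptide for 24 h at 37° C, 5% CO2. Cell-free supernatants assayed for CXCL1 by capture ELISA.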

[10] = test system: Liverpool Epidemic Strains; assay type: cell-based, Pseudomonas aeruginosa
Description: as §1
(§3) All peptides derived from the 1st, 2nd, and 3rd quartiles were further evaluated for their antibacterial activities against several highly antibitoic resistant pathogens (Table 3). These included clinical isolates of MRSA, ESBL E. cloacae, and multidrug resistant Pseudomonas strains including Brazilian clinical isolates of P. aeruginosa that are resistant to meropenem, ceftazidime, piperacillin/tazobactam, ciprofloxacin, cefepime and polymyxin B, and the Liverpool Epidemic Strains. […] Such results characterize the developed peptides as excellent antibiotic candidates, providing new means for treating most dangerous and severe forms of human infections.

[11] = test system: multidrug resistant Pseudomonas maltophilia ATCC13637; assay type: cell-based
Description: as §1
(§4) The selected peptides were synthesized and assayed against several major antibiotic-resistant pathogens. Initially, the peptides were screened against the laboratory strain of P. aeruginosa PAO1 to compare the results with the training data. […] The antibacterial activity in the form of minimal inhibitory concentration (MIC) of the other studied peptides was assessed in greater depth (Table 9) against many highly antibiotic resistanct pathogens.

[12] = test system: ESBL Klebsiella pneumonia clinical strain 63575; assay type: cell-based
Description: as §1, §4

[13] = test system: ESBL E. coli clinical strain 64771; assay type: cell-based; conditions: ESBL clinical strain 64771
Description: as §1, §4

ESBL E. cloacae = assay type: cell-based, Enterobacter cloacae
Description: as §1, §3

[14] = test system: clinical isolates of MRSA; assay type: cell-based, Staphylococcus aureus
Description: as §1, §3

Row | Structure (SMILES) | Chemokine induction MCP-3 ([1]; 20 μg/ml peptide) [pg/mL] | Chemokine induction MCP-3 ([1]; 100 μg/ml peptide) [pg/mL] | Chemokine induction MCP-1 ([2]; 20 μg/ml peptide) [pg/mL] | Chemokine induction MCP-1 ([2]; 100 μg/ml peptide) [pg/mL] | Chemokine induction Gro-α ([9]; 20 μg/ml peptide) [pg/mL] | Chemokine induction Gro-α ([9]; 100 μg/ml peptide) [pg/mL] | MIC [10] [µM] | MIC [11] [µM] | MIC [12] [µM] | MIC [13] [µM] | MIC (ESBL E. cloacae) [µM] | MIC [4] [µM] | MIC [6] [µM] | MIC [14] [µM] | MIC against P. aeruginosa PAO1 [3] [µM] | other results
1 | CC[C@H](C)[C@H](NC(=O)[C@H](CCCNC(=N)N)NC(=O)[C@H](Cc1ccccc1)NC(=O)[C@H](CCC(N)=O)NC(=O)[C@@H](N)CCCCN)C(=O)N[C@@H](CCCNC(=N)N)C(=O)N[C@H](C(=O)N[C@@H](CCCNC(=N)N)C(=O)N[C@H](C(=O)N[C@H](C(=O)N[C@@H](CCCNC(=N)N)C(=O)N[C@@H](CCCCN)C(N)=O)[C@@H](C)CC)C(C)C)C(C)C [HH12, KQFRIRVRVIRK] (H-KQFRIRVRVIRK-NH2; N-terminus assumed) | 91 | 21 | 1649 | 635 | 773 | 172 |  |  |  |  |  |  |  |  |  | MIC P. aerug [3]: 6 mg/L (≈ 3.75 µM); MIC S. aureus [4]: 12 mg/L (≈ 7.51 µM); MIC E. coli (Escherichia coli UB1005): 3 mg/L (≈ 1.88 µM); MIC S. typhi [5]: 6 mg/L (≈ 3.75 µM); MIC E. faecalis [6]: 25 mg/L (≈ 15.6 µM); MIC C. albicans [7]: 6 mg/L (≈ 3.75 µM); MIC S. epi. [8]: 1.6 mg/L (≈ 1 µM)
2 | CC[C@H](C)[C@H](NC(=O)[C@@H](N)CCCCN)C(=O)N[C@@H](Cc1c[nH]c2ccccc12)C(=O)N[C@@H](Cc1c[nH]c2ccccc12)C(=O)N[C@@H](Cc1c[nH]c2ccccc12)C(=O)N[C@@H](Cc1c[nH]c2ccccc12)C(=O)N[C@@H](CCCNC(=N)N)C(=O)N[C@@H](CCCCN)C(=O)N[C@@H](CCCNC(=N)N)C(N)=O [HHC8, KIWWWWRKR] (H-KIWWWWRKR-NH2; N-terminus assumed) | 1 | 4 | 68 | 835 | 9 | -11 | 5.9 (≈ 8.52 µg/mL) | 3 (≈ 4.33 µg/mL) | 47 (≈ 67.9 µg/mL) | 6 (≈ 8.66 µg/mL) | 94 (≈ 136 µg/mL) | 6 (≈ 8.66 µg/mL) | 24 (≈ 34.7 µg/mL) | 6 (≈ 8.66 µg/mL) |  | 
3 | N=C(N)NCCC[C@H](NC(=O)[C@H](CCCNC(=N)N)NC(=O)[C@@H](N)Cc1ccccc1)C(=O)N[C@@H](Cc1c[nH]c2ccccc12)C(=O)N[C@@H](Cc1c[nH]c2ccccc12)C(=O)N[C@@H](CCCCN)C(=O)N[C@@H](Cc1c[nH]c2ccccc12)C(=O)N[C@@H](Cc1ccccc1)C(=O)N[C@@H](CCCCN)C(N)=O [HHC53, FRRWWKWFK] (H-FRRWWKWFK-NH2; N-terminus assumed) | -1 | 5 | -26 | 391 | -23 | 2 | 1.5 (≈ 2.16 µg/mL) | 0.8 (≈ 1.15 µg/mL) | 24 (≈ 34.5 µg/mL) | 6 (≈ 8.63 µg/mL) | 24 (≈ 34.5 µg/mL) | 1.5 (≈ 2.16 µg/mL) | 24 (≈ 34.5 µg/mL) | 3 (≈ 4.32 µg/mL) | 4 to 12 | 
4 | CC[C@H](C)[C@H](NC(=O)[C@H](CCCNC(=N)N)NC(=O)[C@H](CCCCN)NC(=O)[C@@H](NC(=O)[C@H](Cc1c[nH]c2ccccc12)NC(=O)[C@H](Cc1c[nH]c2ccccc12)NC(=O)[C@H](Cc1c[nH]c2ccccc12)NC(=O)[C@H](CCCNC(=N)N)NC(=O)[C@@H](N)CC(C)C)[C@@H](C)CC)C(N)=O [HHC57, LRWWWIKRI] (H-LRWWWIKRI-NH2; N-terminus assumed) | 0 | 9 | 146 | 1364 | 21 | 18 | 6 (≈ 8.13 µg/mL) | 3 (≈ 4.07 µg/mL) | 50 (≈ 67.8 µg/mL) | 13 (≈ 17.6 µg/mL) | 50 (≈ 67.8 µg/mL) | 6 (≈ 8.13 µg/mL) | 13 (≈ 17.6 µg/mL) | 63 (≈ 85.4 µg/mL) | 4 to 12 | 
5 | CC[C@H](C)[C@H](NC(=O)[C@H](Cc1c[nH]c2ccccc12)NC(=O)[C@@H](NC(=O)[C@H](Cc1c[nH]c2ccccc12)NC(=O)[C@H](CCCNC(=N)N)NC(=O)[C@H](CCCCN)NC(=O)[C@@H](N)CCCCN)C(C)C)C(=O)N[C@@H](CCCNC(=N)N)C(=O)N[C@@H](Cc1ccc(O)cc1)C(N)=O [HHC69, KKRWVWIRY] (H-KKRWVWIRY-NH2; N-terminus assumed) | 1 | 0 | 440 | 245 | 17 | -3 | 3 (≈ 4 µg/mL) | 1.6 (≈ 2.13 µg/mL) | 51 (≈ 68 µg/mL) | 13 (≈ 17.3 µg/mL) | 25 (≈ 33.3 µg/mL) | 13 (≈ 17.3 µg/mL) | 25 (≈ 33.3 µg/mL) | 13 (≈ 17.3 µg/mL) | 4 to 12 | 
